Reference: patent US10905706B2, “Compositions and methods to accelerate resolution of acute lung inflammation” (The Johns Hopkins University, priority 2015, dated 2021)
Read-outs that look alike come from different tables or passages of the source.

Tests used:
[1] = system: splenic CD4+ CD25+ cells (Tregs); assay: Lymphocyte culture with DAC, FACS phenotype of Tregs
[2] = system: A/PR/8/34 H1N1 influenza virus; assay: DAC rescue treatment in influenza model; assay type: in vivo, mouse
[3] = system: Rag-1−/− mice; assay type: in vivo, mouse
[4] = system: wild type (WT) mice
[5] = system: diphtheria toxin-treated WT mice; conditions: mouse, in vivo
[6] = system: wild type (WT) mice; assay type: in vivo, mouse
[7] = system: diphtheria toxin-treated Foxp3DTR mice; assay type: in vivo, mouse
[8] = system: WT C57BL/6 mice; assay: IL-4 treatment after i.t. LPS, C57BL/6 mice
[9] = system: Pseudomonas aeruginosa (PAO1)
[10] = system: Foxp3DTR mice; assay: IL-4 after i.t. LPS, Treg-depleted Foxp3DTR mice; assay type: in vivo, mouse
[11] = system: WT mice; assay: IL-4 after i.t. LPS, WT mice of the Stat6 comparison; assay type: in vivo, mouse
Source text: (§1) Animals. Male C57BL/6J and BALB/cJ wild type (WT) mice (8-10 weeks old) were purchased from Jackson Laboratories (Bar Harbor, Me.). Stat6-/- mice on a BALB/c background (gift of Dr. Alan Scott) and Foxp3DTR mice on a C57BL/6 background (gift of Dr. Alexander Y. Rudensky of Memorial Sloan-Kettering) were bred. All mice were housed at the Johns Hopkins University Asthma and Allergy Bldg, and experiments conducted under a protocol approved by the Johns Hopkins Animal Care and Use Committee.
(§2) Whether the success of IL-4 therapy required M2-specific macrophage activation was also examined To test this hypothesis, the response to i.t. LPS was compared between WT mice and Stat6^−/− mice, which were deficient in a master transcriptional regulator of M2 differentiation and activation (75). […] In contrast to reduced M2 marker expression in Stat6^−/− mice, similar CD86 expression between groups (FIG. 18E) was also observed.

[12] = mouse, cited from earlier work
[13] = system: Stat6−/− mice; assay: IL-4 after i.t. LPS, Stat6−/− mice; assay type: in vivo, mouse; conditions: day 5 after i.t. LPS
Source text: as §1, §2

[14] = system: i.t. H2O-exposed mice; conditions: mouse, in vivo
[15] = in vivo; cited from earlier work
[16] = in solution; typically; cited from earlier work
[17] = day 10 post-inoculation, vs vehicle
[18] = days 5-6 after i.t. LPS, vs sham
[19] = mRNA, validated by lung immunoblots, days 4 and 6

Molecule: Nc1ncn([C@H]2C[C@H](O)[C@@H](CO)O2)c(=O)n1 [DAC, 5-aza-2′-deoxycytidine]
- CD39 expression in Tregs ([1]; 100 nM DAC vs vehicle, 48 h): did not augment
- CD44 expression in Tregs ([1]; 100 nM DAC vs vehicle, 48 h): increased CD44 expression
- CTLA-4 expression in Tregs ([1]; 100 nM DAC vs vehicle, 48 h): modestly increased
- percentage of Tregs expressing Ki-67 ([1]; 100 nM DAC vs vehicle, 48 h): higher percentage
- Foxp3 expression in Tregs ([1]; 48 h culture, anti-CD3/CD28, IL-2, DAC 10 or 100 nM): augmented Foxp3 expression
- difference in Foxp3 mean fluorescence intensity between DAC-induced Foxp3+ cells and Foxp3+ Tregs cultured with DAC ([1]; in vitro culture): approximately 50 fold
- weight loss ([2]; DAC days 3-7 post-inoculation, day 10, vs vehicle): smaller magnitude of weight loss
- lung Treg Foxp3 expression ([2]; day 10 post-inoculation): increase
- lung Treg number ([2]; day 10 post-inoculation): increase
- BAL cell count [2, 17]: decreased
- BAL neutrophil count [2, 17]: decreased
- BAL protein [2, 17]: decreased
- histologic injury [2, 17]: decreased
- mortality ([3]; DAC days 1-4 after LPS, vehicle 50%, P=0.7): 44%
- injury resolution ([3]; five days post-injury): could not be rescued
- lung Treg frequency ([4]; DAC 1 mg/kg i.p. days 1-4 after i.t. water, day 5, vs vehicle): increased
- lung Treg Foxp3 expression ([4]; DAC i.p. days 1-4 after i.t. water, day 5, FACS): increased
- lung histology ([4]; after four days of DAC or vehicle): normal
- BAL protein ([4]; day 5 after i.t. water, both groups): low overall
- pulmonary or overt systemic toxicity ([4]; dose that increased lung Treg number): did not cause pulmonary or overt systemic toxicity
- spleen Treg levels ([4]; five days post-water treatment): significantly elevated
- weight loss or mortality ([4]; i.t. water, data not shown): Neither group lost weight or experienced mortality
- lung injury resolution [5]: accelerated lung injury resolution
- mortality ([6]; DAC from 24 h after i.t. LPS, vehicle 28.5%, P=0.029): none
- body weight ([6]; after initial injury, vehicle sustained weight loss): steadily regained weight
- CD25 expression in lung Tregs ([6]; data not shown): no significant change
- injury parameters (BAL protein, cell count, neutrophil count, histology) ([6]; day 5 post-LPS): resolving phenotype
- CD39 expression in lung Tregs ([6]; five days after injury): increased
- CD44 expression in lung Tregs ([6]; five days after injury): increased
- CTLA-4 expression in lung Tregs ([6]; five days after injury): modestly yet significantly increased
- Ki-67 expression in lung Tregs ([6]; five days after injury): increased
- Foxp3 expression in lung Tregs ([6]; five days post-LPS): increased
- spleen Treg levels ([6]; five days post-LPS challenge): significantly elevated
- lung CD4+Foxp3− cell frequency or phenotype ([6]; five days post-injury): did not impact
- lung Treg frequency or phenotype ([6]; two days post-injury, after one DAC dose, data not shown): no effect
- lung injury resolution (weight, BAL protein, cell count, neutrophil count, histology) ([7]; five days post-LPS): did not accelerate lung injury resolution
- mortality ([7]; mouse, in vivo): 33%

Molecule: IL-4: recombinant IL-4 cytokine (PeptroTech); in the examples given i.p. as a complex with anti-IL-4 antibody
- weight gain ([8]; by day 6 after i.t. LPS, vs sham): improved weight gain
- whole lung mRNA level of inducible nitric oxide synthase (Nos2) ([8]; day 4): reduced
- CD86 level on alveolar macrophages (F4/80+) ([8]; day 6, vs sham): three-fold lower
- Dectin-1 level on alveolar macrophages (F4/80+) ([8]; day 6, vs sham): four-fold higher
- MMR level on alveolar macrophages (F4/80+) ([8]; day 6, vs sham): four-fold higher
- Tregs recovered by BAL ([8]; day 6 after i.t. LPS, vs sham): significant three-fold increase
- histopathologic evidence of lung injury ([8]; day 6 after i.t. LPS, vs sham): reduced histopathologic evidence of lung injury
- diffusing capacity (DFCO) ([8]; day 6 following i.t. LPS): significantly improved
- lung collagen ([8]; day 6 following i.t. LPS, vs sham): significantly reduced
- BAL albumin [8, 18]: two-fold reduction
- BAL neutrophils [8, 18]: five-fold reduction
- BAL protein [8, 18]: as much as a three-fold reduction
- survival ([8]; i.t. LPS 4 mg/kg day 0, IL-4 days 2-4, sham 57%): 92%
- number of FIZZ1-expressing alveolar macrophages ([8]; i.t. LPS, vs sham): smaller, yet significant increase
- number of FIZZ1-expressing interstitial macrophages ([8]; i.t. LPS, vs sham): significant two-fold increase
- Arginase 1 (Arg1) level in whole lung [8, 19]: significantly increased
- Fizz1 (Retn1a) level in whole lung [8, 19]: significantly increased
- Ym1 (Chil3) level in whole lung [8, 19]: significantly increased
- BAL albumin ([9]; day 4, vs sham): two-fold reductions
- BAL neutrophils ([9]; day 4, vs sham): four-fold reduction
- MFI of MMR and Dectin-1 ([9]; day 4, vs sham): significantly increased
- percentage of alveolar macrophages (F4/80+) expressing MMR and Dectin-1 ([9]; day 4, vs sham): more than doubled
- BAL protein ([9]; i.t. PAO1 day 0, IL-4 days 2 and 3, day 4, vs sham): two-fold reductions
- lung CFU counts ([9]; mouse, in vivo): similar
- BAL macrophages ([10]; day 6, vs sham): significant increase
- M2 macrophage surface marker expression ([10]; day 6, vs sham): higher
- BAL neutrophils ([10]; day 6 after i.t. LPS, vs sham): significantly reduced
- BAL protein ([10]; day 6 after i.t. LPS, vs sham): significantly reduced
- BAL total cell count ([10]; day 6 after i.t. LPS, vs sham): significantly reduced
- weights ([10]; i.t. LPS 3 mg/kg, DT, IL-4 days 2 and 3, vs sham): significantly increased
- BAL neutrophils ([11]; day 5): greater than two-fold reduction
- BAL protein ([11]; day 5): greater than two-fold reduction
- weight ([11]; days 4 and 5, vs all other groups): significant weight gain
- half-life in mice ([12]; in vivo): 30 min
- duration of in vivo IL-4 activity [12]: about 30 minutes
- response to IL-4 (BAL protein and neutrophils) [13]: blunted response
- Crs or DFCO [14]: no marked differences
- safety in humans [15]: safe

Molecule: diphtheria toxin [reference compound]
- Tregs remaining after depletion, of all CD4+ cells ([10]; spleen, lung, BAL, sham- and IL-4-treated groups): less than 0.2%

B1: recombinant human IL-4: 15.1 kDa globular protein, SEQ ID NO: 3 (protein)
chain: MHKCDITLQEIIKTLNSLTEQKTLCTELTVTDIFAASKNTTEKETFCRAATVLRQFYSHHEKDTRCLGATAQQFHRHKQLIRFLKRLDRNLWGLAGLNSCPVKEANQSTLENFLERLKTIMREKYSKCSS
- ED50 for certain effects [16]: 0.006 to 0.03 ng/mL
